Experiments:
Format in all cases: in vivo
[1] = blood parameters in high-fat diet-fed mice; settings: HF diet-fed C57BL/6J mice, Rosi 0.01 g/kg/day oral gavage 4 weeks
Procedure: For part 2, C57BL/6J mice (4 weeks old) were obtained from the National Laboratory Animal Breeding and Research Center. The mice were divided randomly into two groups after 7 days acclimation. […] The compositions of the experimental diets are given in previous studies. After 8 weeks, the high-fat treated mice were randomly subdivided into four groups (n=9) including PTA1 (0.06 g/kg/day), PTA2 (0.12 g/kg/day) or rosiglitazone (Rosi; 1% methylcellulose, 10 mg/kg body weight) (GlaxoSmithKline) or vehicle and treated by oral gavage one time per day from the 9th to 12th weeks, while the mice were still on the high-fat diet, whereas the CON and high-fat control (HF) mice were treated with vehicle only. At the end, food was withheld from the animals (from 10 p.m. to 10 a.m.). The next day, the mice were sacrificed for blood and tissue collection and analysis. Livers, skeletal muscles, and white adipose tissues (WATs) (including epididymal, mesenteric, and retroperitoneal WAT) were weighed and excised, followed by immediate freezing, and kept at −80° C. for target gene analysis. Heparin (30 units/mL) (Sigma) was added to blood samples. Plasma samples were collected within 30 min by centrifugation at 1600 g for 15 min at 4° C. Plasma was obtained for insulin and leptin assay.
Blood samples (0.8 mL) were collected from the retro-orbital sinus of fasted mice, and the glucose level was analyzed by the glucose oxidase method (model 1500; Sidekick Glucose Analyzer; YSI Inc., Yellow Springs, Ohio, USA). Plasma triglycerides (TG), total cholesterol (TC), and free fatty acids (FFA) were measured using commercial assay kits according to the manufacturer's directions (Triglycerides-E test, Cholesterol-E test, and FFA-C test, Wako Pure Chemical, Osaka, Japan). The levels of insulin and leptin in blood were analyzed by ELISA using a commercial assay kit according to the manufacturer's directions (mouse insulin ELISA kit, Sibayagi, Gunma, Japan; and mouse leptin ELISA kit, Morinaga, Yokohama, Japan).

[2] = hepatic lipids in high-fat diet-fed mice; settings: HF diet-fed C57BL/6J mice, Rosi 0.01 g/kg/day oral gavage 4 weeks; mean ± SE, n=9
Description: (§1) For part 2, C57BL/6J mice (4 weeks old) were obtained from the National Laboratory Animal Breeding and Research Center. The mice were divided randomly into two groups after 7 days acclimation. The control (CON) group (n=9) was fed a low-fat diet (diet 12450B, Research Diets, Inc., New Brunswick, N.J., USA), whereas the experimental group was fed a 45% high-fat diet (diet 12451, Research Diets, Inc.) for 12 weeks. The compositions of the experimental diets are given in previous studies. After 8 weeks, the high-fat treated mice were randomly subdivided into four groups (n=9) including PTA1 (0.06 g/kg/day), PTA2 (0.12 g/kg/day) or rosiglitazone (Rosi; 1% methylcellulose, 10 mg/kg body weight) (GlaxoSmithKline) or vehicle and treated by oral gavage one time per day from the 9th to 12th weeks, while the mice were still on the high-fat diet, whereas the CON and high-fat control (HF) mice were treated with vehicle only. At the end, food was withheld from the animals (from 10 p.m. to 10 a.m.). The next day, the mice were sacrificed for blood and tissue collection and analysis. Livers, skeletal muscles, and white adipose tissues (WATs) (including epididymal, mesenteric, and retroperitoneal WAT) were weighed and excised, followed by immediate freezing, and kept at −80° C. for target gene analysis. Heparin (30 units/mL) (Sigma) was added to blood samples. Plasma samples were collected within 30 min by centrifugation at 1600 g for 15 min at 4° C. Plasma was obtained for insulin and leptin assay.
Hepatic lipids were extracted using a previously described protocol. For the hepatic lipid extraction, 0.375 g liver samples were homogenized with 1 mL of distilled water for 5 min. Finally, the dried pellet was resuspended in 0.5 mL of ethanol and analyzed using a triglycerides kit as used for serum lipids.

[3] = test system: epididymal WAT and liver tissue; experiment: histopathology of epididymal WAT and liver tissue; settings: HF diet-fed C57BL/6J mice, Rosi 0.01 g/kg/day oral gavage 4 weeks
Description: as §1
Small pieces of epididymal WAT and liver tissue were fixed with formalin (200 g/kg) neutral buffered solution and embedded in paraffin. Sections (8 μm) were cut and stained with hematoxylin and eosin. For microscopic examination, a microscope (Leica, DM2500) was used, and the images were taken using a Leica Digital camera (DFC-425-C).

With `CN(CCOc1ccc(CC2SC(=O)NC2=O)cc1)c1ccccn1` (stereo not drawn) [Rosi, rosiglitazone, reference compound] the blood glucose ([1]; week 12) was 89.7 mg/dL, the “Blood profiles: FFA (plasma free fatty acid)” value ([1]; mean ± SE, n=9) was 1.85 ± 0.28 mequiv/L and the “Blood profiles: Insulin” value ([1]; mean ± SE, n=9) was 56.4 ± 13.8 μU/mL. The Blood profiles: Leptin ([1]; mean ± SE, n=9) was 2.15 ± 0.099 ng/mL, the “Blood profiles: TC (total cholesterol)” value ([1]; mean ± SE, n=9) was 140.7 ± 14.1 mg/dL and the “Liver lipids: Total lipid” value [2] was 74.7 ± 5.7 mg/g. For the same compound, the “Liver lipids: Triacylglycerol” value [2] was 43.8 ± 4.7 µmol/g, the “average area of adipocytes (epididymal WAT)” value [3] was 4574.4±162.7 μm^2 and the “hepatocellular ballooning mean score” value ([3]; grade 0 none, 1 a few cells, 2 many cells) was 0.9±0.2.

Reference: patent publication US20170105953A1, “METHOD FOR SUPPRESSING DIABETES AND/OR HEPATIC LIPIDS USING TORMENTIC ACID” (priority 2015, published 2017)
